# From patent publication US9255272B2, “Use of inhibitors of leukotriene B4 receptor BLT2 for treating asthma” (Korea University Research & Business Foundation, priority 2007, dated 2016)
# Assays:
# Assay type in all cases: in vivo, mouse
# OVA-challenged mice [1] = test: Recruitment of CD4+ and CD8+ T cells into BAL fluid (flow cytometry); settings: BAL fluid 12 hr after 10% OVA challenge
# Text: FIGS. 8a and 8b show recruitment of T lymphocytes into airways. FIG. 8a depicts FACS analysis showing recruitment of CD4+ T cells into the BAL fluid of mice 12 hr after aerosol OVA challenge. FIG. 8b depicts FACS analysis showing recruitment of CD8+ T cells into the BAL fluid of mice 12 hr after aerosol OVA challenge. BAL fluid was collected 12 hr after 10% OVA challenge and washed with PBS. The leukocytes present were stained with FITC-conjugated anti-mouse TCR chain and PE-cy5 anti-mouse CD8a or PE rat anti-mouse CD4 after blocking with anti-FcRyantibody. Samples were then analyzed by flow cytometry to assess T lymphocyte recruitment. Data are means±SEM (n=6 in each group). *P<0.05 vs. OVA/asBLT2. For flow cytometric analysis, the cells in the BAL fluid were suspended in 50 μl of PBS containing 0.01% sodium azide and 0.1% BSA. BAL leukocytes were incubated for 30 min with 2.4G2 anti-FcγIII/II receptor (BD PharMingen) and stained for 30 min at 4° C. with FITC-conjugated anti-mouse TCR. chain (BD PharMingen) and PE-cy5 anti-mouse CD8a (BD PharMingen) or PE rat anti-mouse CD4 (BD PharMingen). Cytofluorimetry was performed with a FACS Caiibur™ (Becton Dickinson, Franklin Lakes, N.J.), and the results were analyzed with CellQuest software (Becton-Dickinson).
# ROS = ROS levels in BAL fluid cells (DCF fluorescence, FACS); settings: 1.6 mg/kg i.v. 24 hr and 1 hr before 10% OVA; BAL fluid 48 h after challenge
# Procedure: (§1) Female BALB/c mice and C57BL/6 mice (7 weeks old; 18-20 g) were obtained from Orientbion Inc. (Seoungnam, Korea). Sensitization and challenge were carried out as described previously with some modification (28). Briefly, female C57BL/6 mice (7 weeks old; 18-20 g) were immunized by intraperitoneal (i.p.) injection of 200 μg ovalbumin (OVA) emulsified in 2.5 mg of adjuvant aluminum hydroperoxide gel (alum) (Pierce, Rockford, Ill.). A second i.p. injection of 20 μg OVA adsorbed onto alum (2.5 mg) was administered 10 days later. After an additional 10 days, mice were exposed to an aerosol of 1% OVA in saline for 30 min daily on 3 consecutive days. On day 25, mice were finally challenged by provocation with 10% OVA aerosol. For inhibition experiments, sense or antisense BLT2 (1.6 mg/kg) was injected intravenously 24 h and then 1 h before the 10% OVA challenge. The mice were then killed on day 27 to assess asthmatic phenotypes. Antisense BLT2 oligonucleotide (5′-[…]-3′ (SEQ ID NO: 15)), sense BLT2 oligonucleotide (5′-[…]-3′ (SEQ ID NO: 16)).
# ROS levels in BAL fluids were measured as a function of DCF fluorescence as described previously (30). […] DCF fluorescence was excited at 488 nm and the evoked emission was filtered with a 515-nm long-pass filter. […]
# OVA-challenged mice [2] = test: Eosinophil infiltration in BAL fluid of OVA-challenged mice; settings: C57BL/6 mice, 1.6 mg/kg i.v. 24 hr and 1 hr before 10% OVA challenge, 48 hr
# Procedure: as §1
# Inflammatory cells in the BAL fluid were collected by centrifugation (1,000 g for 3 min) and washed once in PBS. Cells were counted using a hemocytometer, and viability was assessed by trypan blue exclusion. […]
# LTB4 = LTB4 level in BAL fluid (EIA); settings: antisense BLT2 1.6 mg/kg i.v. 24 h and 1 h before 10% OVA; 48 h
# Procedure: Female BALB/c mice and C57BL/6 mice (7 weeks old; 18-20 g) were obtained from Orientbion Inc. (Seoungnam, Korea). Sensitization and challenge were carried out as described previously with some modification (28). Briefly, female C57BL/6 mice (7 weeks old; 18-20 g) were immunized by intraperitoneal (i.p.) injection of 200 μg ovalbumin (OVA) emulsified in 2.5 mg of adjuvant aluminum hydroperoxide gel (alum) (Pierce, Rockford, Ill.). A second i.p. injection of 20 μg OVA adsorbed onto alum (2.5 mg) was administered 10 days later. After an additional 10 days, mice were exposed to an aerosol of 1% OVA in saline for 30 min daily on 3 consecutive days. On day 25, mice were finally challenged by provocation with 10% OVA aerosol. For inhibition experiments, sense or antisense BLT2 (1.6 mg/kg) was injected intravenously 24 h and then 1 h before the 10% OVA challenge. The mice were then killed on day 27 to assess asthmatic phenotypes. […]
# Levels of LTB4 were quantified with the leukotriene B4 enzyme immunoassay (EIA) Biotrak™ system (Amersham Biosciences, UK). […] Substrate (tetramethylbenzidine) was then added, and the reaction was stopped by adding an acid solution and the color read at 450 nm in a spectrophotometer. […] Statistical significance of differences between groups was assessed by analysis of variance, and P<0.05 was considered significant.
substance,measurement,setting,value
"antisense BLT2: Antisense BLT2 oligonucleotide 5′-GCTCAGTAGTGTCTCATTCC-3′ (SEQ ID NO: 15) (listed as DNA, chemistry not fully specified)",effect on T cell trafficking into airways,OVA-challenged mice [1],no inhibitory effect
same,reduction of ROS levels in BAL fluid,ROS,−70%
same,reduction of eosinophil infiltration in BAL fluids,OVA-challenged mice [2],~87%
same,suppression of the level of LTB4 in BAL fluid,LTB4,−72%
